Assay results: US20080306076A1, “MODULATION OF CHEMOSENSORY RECEPTORS AND LIGANDS ASSOCIATED THEREWITH” (SENOMYX, INC., priority 2007, published 2008)

Biological target: T1, hT1R1 H71A (Homo sapiens, UniProt Q7RTX1, H71A)
T1 construct: expressed in transfected cells; host or cells: HEK293, transient transfection
T1 sequence (Q7RTX1 21-841 H71A): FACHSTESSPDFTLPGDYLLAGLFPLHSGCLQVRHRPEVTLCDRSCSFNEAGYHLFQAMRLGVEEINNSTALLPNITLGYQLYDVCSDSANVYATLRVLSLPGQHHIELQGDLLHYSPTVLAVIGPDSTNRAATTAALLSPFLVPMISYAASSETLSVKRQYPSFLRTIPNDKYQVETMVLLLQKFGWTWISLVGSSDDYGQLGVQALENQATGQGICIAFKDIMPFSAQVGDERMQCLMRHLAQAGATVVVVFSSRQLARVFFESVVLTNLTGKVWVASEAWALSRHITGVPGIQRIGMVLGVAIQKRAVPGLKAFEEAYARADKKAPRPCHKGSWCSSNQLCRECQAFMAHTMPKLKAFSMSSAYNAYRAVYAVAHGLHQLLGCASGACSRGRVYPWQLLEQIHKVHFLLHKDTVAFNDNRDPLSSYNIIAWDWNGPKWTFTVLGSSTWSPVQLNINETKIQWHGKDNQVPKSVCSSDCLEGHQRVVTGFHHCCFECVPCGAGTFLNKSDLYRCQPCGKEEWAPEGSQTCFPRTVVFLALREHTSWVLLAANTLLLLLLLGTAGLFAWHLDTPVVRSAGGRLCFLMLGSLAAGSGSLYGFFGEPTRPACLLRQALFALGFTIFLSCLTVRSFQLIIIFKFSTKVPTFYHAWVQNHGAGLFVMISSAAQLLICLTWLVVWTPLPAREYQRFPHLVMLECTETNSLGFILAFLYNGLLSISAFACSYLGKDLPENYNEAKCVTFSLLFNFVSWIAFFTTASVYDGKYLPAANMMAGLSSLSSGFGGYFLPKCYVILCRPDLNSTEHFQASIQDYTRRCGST
T1 sequence (Q923K1 21-858 partner): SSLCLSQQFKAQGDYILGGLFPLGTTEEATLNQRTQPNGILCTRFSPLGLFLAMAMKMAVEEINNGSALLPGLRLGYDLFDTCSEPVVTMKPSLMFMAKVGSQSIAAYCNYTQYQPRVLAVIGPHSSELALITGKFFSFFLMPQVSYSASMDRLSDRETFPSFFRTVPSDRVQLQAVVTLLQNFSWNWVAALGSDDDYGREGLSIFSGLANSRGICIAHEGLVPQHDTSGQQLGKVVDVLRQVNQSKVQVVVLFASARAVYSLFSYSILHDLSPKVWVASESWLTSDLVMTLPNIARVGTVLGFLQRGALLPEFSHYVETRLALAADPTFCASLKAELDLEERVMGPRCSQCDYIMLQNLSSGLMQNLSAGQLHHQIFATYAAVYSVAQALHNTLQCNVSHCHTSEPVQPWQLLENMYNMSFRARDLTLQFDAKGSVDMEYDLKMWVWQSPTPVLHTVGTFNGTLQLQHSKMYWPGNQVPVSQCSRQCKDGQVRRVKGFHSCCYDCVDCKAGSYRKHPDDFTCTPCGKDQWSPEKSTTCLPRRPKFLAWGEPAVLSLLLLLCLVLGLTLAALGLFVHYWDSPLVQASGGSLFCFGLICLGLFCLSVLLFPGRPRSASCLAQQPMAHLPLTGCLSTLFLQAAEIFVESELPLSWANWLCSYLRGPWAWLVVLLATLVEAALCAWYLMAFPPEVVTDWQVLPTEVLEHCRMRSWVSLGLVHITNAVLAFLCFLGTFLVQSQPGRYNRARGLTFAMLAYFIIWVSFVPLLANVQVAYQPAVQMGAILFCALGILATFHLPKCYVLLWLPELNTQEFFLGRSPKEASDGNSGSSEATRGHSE
Experiment: Mutagenesis study, hT1R1 mutant H71A
Type: cell-based
Settings: H71 mutation
Description: In order to further define the interaction sites of umami stimuli, we performed site-directed mutagenesis on human T1R1 VFT. The mutagenesis was done using the routine PCR-based method. […] were transiently transfected into HEK293 cell together with the rat T1R3 wild type cDNA, and the transfected cells were characterized using an automated FLIPR machine or a calcium imaging system as described in our previous patent applications.

## Nc1nc2c(ncn2[C@@H]2O[C@H](COP(=O)(O)O)[C@@H](O)[C@H]2O)c(=O)[nH]1 [GMP, guanosine-5′-monophosphate]
  enhancement activity of GMP: similarly affected
